# Assay results as given in US10780101B2, “Amide derivatives of squalamine for the treatment of infections” (VIRBAC, priority 2016, dated 2020).
# Where two headings read alike, the source gives them in different places.
# How the values were obtained:
# [1] = tested on: P. aeruginosa (PAO1); test: MIC of doxycycline alone on PAO1; type: cell-based; details: Pseudomonas aeruginosa, Gram-negative strain P. aeruginosa (PAO1)
# Description: On the Gram-negative strain of P. aeruginosa (PAO1), doxycycline has an MIC of 40 μg/mL.
# [2] = tested on: S. aureus Human ATCC 25923; test: MIC determination, S. aureus human ATCC 25923; type: cell-based; details: Staphylococcus aureus, ATCC25923; Gram-positive; Mueller-Hinton medium, 24 h at 37° C.
# Procedure, shortened: (§1)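 Broth microdilution in Mueller-Hinton medium, inoculum at OD 0.01, compounds (5 mg/mL stock in DMSO/methanol 50/50) serially diluted twofold. Plates incubated 24 h at 37° C. under humid atmosphere, read at OD 620 nm for MIC; duplicates.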
# [3] = tested on: P. aeruginosa Animal (1051575); test: MIC determination, P. aeruginosa animal (1051575); type: cell-based; details: Pseudomonas aeruginosa; Gram-negative; Mueller-Hinton medium, 24 h at 37° C.
# Procedure, shortened: as §1
# [4] = tested on: E. faecalis Human ATCC 29212; test: MIC determination, E. faecalis human ATCC 29212; type: cell-based; details: Enterococcus faecalis, ATCC29212; Gram-positive; Mueller-Hinton medium, 24 h at 37° C.
# Procedure, shortened: as §1
# [5] = tested on: E. coli Animal (1956); test: MIC determination, E. coli animal (1956); type: cell-based; details: Escherichia coli; Gram-negative; Mueller-Hinton medium, 24 h at 37° C.
# Procedure, shortened: as §1
# [6] = tested on: P. aeruginosa (1051575); test: Potentiation of doxycycline activity (combination MIC); type: cell-based, Pseudomonas aeruginosa; details: in presence of doxycycline 2 μg/mL; 24 hours at 37° C.
# [7] = tested on: S. aureus Animal (340); test: MIC determination, S. aureus animal (340); type: cell-based; details: Staphylococcus aureus; Gram-positive; Mueller-Hinton medium, 24 h at 37° C.
# Procedure, shortened: as §1
# [8] = tested on: E. coli Human ATCC 28922; test: MIC determination, E. coli human ATCC 28922; type: cell-based; details: Escherichia coli, ATCC28922; Gram-negative; Mueller-Hinton medium, 24 h at 37° C.
# Procedure, shortened: as §1
# [9] = tested on: P. aeruginosa Human ATCC 27853; test: MIC determination, P. aeruginosa human ATCC 27853; type: cell-based; details: Pseudomonas aeruginosa, ATCC27853; Gram-negative; Mueller-Hinton medium, 24 h at 37° C.
# Procedure, shortened: as §1
# [10] = tested on: S. intermedius Animal (1051997); test: MIC determination, S. intermedius animal (1051997); type: cell-based; details: Staphylococcus intermedius; Gram-positive; Mueller-Hinton medium, 24 h at 37° C.
# Procedure, shortened: as §1
# [11] = tested on: CHO-K1 cells; test: WST1 cytotoxicity test on CHO-K1 cells; type: cell-based, Chinese hamster; details: Cricetulus griseus
# Procedure, shortened: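 CHO-K1 cells pre-grown 24 h, then exposed to increasing compound concentrations in duplicate for 24 h at 37° C, 5% CO2. Viability read after 20 min with 10% WST-1 in PBS at 450 nm; IC50 from nonlinear regression as concentration cutting viability 50%.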
# [12] = tested on: C. albicans; test: Antifungal activity, cascade microdilution; type: cell-based; details: Candida albicans, 24 h, read-out: IC50 (μg/mL) C. albicans
# [13] = tested on: P. aeruginosa (1051575); test: Potentiation of chloramphenicol activity (combination MIC); type: cell-based, Pseudomonas aeruginosa; details: chloramphenicol 2 μg/mL; concentration of compound required to restore antibiotic activity
# Description: This method requires the use of a 96-well plate: 100 μL of a liquid culture medium are placed in each well and then seeded with the microbial suspension prepared previously. The required volume to be seeded is calculated for an OD of 0.01, which corresponds to about 5×10^6 bacteria in each well. In this plate, the first line corresponds to a negative control (200 μL of sterile culture medium in each well), the second line corresponds to a positive control (100 μL of sterile culture medium+100 μL of the bacterial suspension), and the third line contains 192 μL of culture medium; 8 μL of compound of formula (I) to be tested are placed in each well. Thereafter, a cascade dilution is performed from this line. […] 92 μL of bacterial suspension are then added to lines 3 to 8. The results are read (the determination of the MIC (2 μg/mL of doxycycline) in the presence of X g/mL of compound of formula (I)) after 24 hours of incubation at 37° C. under a humid atmosphere. After 24 hours of incubation at 37° C., 40 μL of nitro tetrazolium iodide are added to each well to reveal the presence of live bacteria by staining the medium pink.
# The procedure is identical to that indicated in Example 5 above. […]
# (§2) The results are given in table V. They indicate the concentration of compound of formula (I) required to be able to restore the activity of the antibiotic under consideration.
# [14] = tested on: P. aeruginosa (1051575); test: Potentiation of erythromycin activity (combination MIC); type: cell-based, Pseudomonas aeruginosa; details: erythromycin 2 μg/mL; concentration of compound required to restore antibiotic activity
# Description: This method requires the use of a 96-well plate: 100 μL of a liquid culture medium are placed in each well and then seeded with the microbial suspension prepared previously. The required volume to be seeded is calculated for an OD of 0.01, which corresponds to about 5×10^6 bacteria in each well. In this plate, the first line corresponds to a negative control (200 μL of sterile culture medium in each well), the second line corresponds to a positive control (100 μL of sterile culture medium+100 μL of the bacterial suspension), and the third line contains 192 μL of culture medium; 8 μL of compound of formula (I) to be tested are placed in each well. Thereafter, a cascade dilution is performed from this line. L of a doxycycline solution (1 mg dissolved in 20 mL) are then added to each well of lines 3 to 8 to obtain a final antibiotic concentration of 2 μg/mL. 92 μL of bacterial suspension are then added to lines 3 to 8. The results are read (the determination of the MIC (2 μg/mL of doxycycline) in the presence of X g/mL of compound of formula (I)) after 24 hours of incubation at 37° C. under a humid atmosphere. After 24 hours of incubation at 37° C., 40 μL of nitro tetrazolium iodide are added to each well to reveal the presence of live bacteria by staining the medium pink.
# The procedure is identical to that indicated in Example 5 above. 8 μL of an antibiotic solution under consideration (1 mg dissolved in 20 mL) are added to obtain a final antibiotic concentration of 2 μg/mL instead of 8 μL of a doxycycline solution.
# as §2
# [15] = CHO-K1, 24 h, read-out: IC50 (μg/mL) CHO
# [16] = CHO-K1, read-out: IC50 (μg/mL) CHO
MIC [1] [µg/mL],Compound,MIC [2] [µg/mL],MIC [3] [µg/mL],MIC [4] [µg/mL],MIC [5] [µg/mL],MIC - P. aeruginosa (1051575): content of compound of formula (I) to restore the doxycycline activity (at 2 μg/mL) [6] [µg/mL],MIC [7] [µg/mL],MIC [8] [µg/mL],MIC [9] [µg/mL],MIC [10] [µg/mL],"IC50 [11, 15] [µg/mL]","IC50 [11, 16] [µg/mL]",IC50 [12] [µg/mL],MIC P. aeruginosa (1051575) compound + chloramphenicol [13] [µg/mL],MIC P. aeruginosa (1051575) compound + erythromycin [14] [µg/mL]
40,C[C@H]1c2cccc(O)c2C(=O)C2=C(O)[C@]3(O)C(=O)C(C(N)=O)=C(O)[C@@H](N(C)C)[C@@H]3[C@@H](O)[C@@H]21 [doxycycline],,,,,,,,,,,,,,
,"CC(C)NC(=O)CC[C@@H](C)[C@H]1CCC2C3CCC4C[C@@H](NCCCN5CCN(CCCN)CC5)CC[C@]4(C)C3CC[C@@]21C (stereo partly drawn) [(19), 3β-(1,4-bis(3-aminopropyl)piperazine)-N-isopropyllithocholamide]",8,30,15,30,8,4,30,120,4,12,12,4,,
,"CC(C)NC(=O)CC[C@@H](C)[C@H]1CCC2C3C(C[C@H](O)[C@@]21C)[C@@]1(C)CC[C@H](NCCCNCCCNCCCN)CC1C[C@H]3O (stereo partly drawn) [(4), 3β-norspermino-N-isopropylcholamide]",8,32,32,32,1,16,16,64,4,65,170,8,,
,"CCN(CC)C(=O)CC[C@@H](C)[C@H]1CCC2C3C(CC[C@@]21C)[C@@]1(C)CC[C@H](NCCCN(CCCN)CCCN)CC1C[C@H]3O (stereo partly drawn) [(44), 3β-(tris(3-aminopropyl)amine)-N,N-diethylchenodeoxycholamide]",2,60,,30,2,4,15,60,2,75,75,0.5,4,8
,"CC(C)NC(=O)CC[C@@H](C)[C@H]1CCC2C3CCC4C[C@@H](NCCCNCCCNCCCN)CC[C@]4(C)C3C[C@H](O)[C@@]21C (stereo partly drawn) [Compound (1), 3β-norspermino-N-isopropyldeoxycholamide]",4,8,8,8,1,2,8,8,0.5,42,33,0.5,,
,"CC(C)NC(=O)CC[C@@H](C)[C@H]1CCC2C3C(CC[C@@]21C)[C@@]1(C)CC[C@H](NCCCNCCCCNCCCN)CC1C[C@H]3O (stereo partly drawn) [Compound (32), 3β-spermino-N-isopropylchenodeoxycholamide]",7,15,7,31,1,2,15,30,0.5,34,13,2,,
,"CC(C)NC(=O)CC[C@@H](C)[C@H]1CCC2C3C(CC[C@@]21C)[C@@]1(C)CC[C@H](NCCCNCCCCN)CC1C[C@H]3O (stereo partly drawn) [(52), 3β-spermidino-N-isopropylchenodeoxycholamide]",7,112,14,28,3.5,4,112,56,2,80,48,4,,
,"CCN(CC)C(=O)CC[C@@H](C)[C@H]1CCC2C3C(CC[C@@]21C)[C@@]1(C)CC[C@H](NCCCNCCCCNCCCN)CC1C[C@H]3O (stereo partly drawn) [Compound (34), 3β-spermino-N,N-diethylchenodeoxycholamide]",4,16,2,8,2,4,8,16,2,50,50,0.5,,
,"CC(C)NC(=O)CC[C@@H](C)[C@H]1CCC2C3C(CC[C@@]21C)[C@@]1(C)CC[C@H](NCCCN(CCCN)CCCN)CC1C[C@H]3O (stereo partly drawn) [(46), 3β-(tris(3-aminopropyl)amine)-N-isopropylchenodeoxycholamide]",8,120,30,30,2,2,> 120,60,2,50,50,1,,
,"CNC(=O)CC[C@@H](C)[C@H]1CCC2C3C(CC[C@@]21C)[C@@]1(C)CC[C@H](NCCCNCCCN)CC1C[C@H]3O (stereo partly drawn) [(11), 3β-norspermidino-N-methylchenodeoxycholamide]",6,6,13,13,2,3,13,12,1,20,20,3,,
